{
  "source": "the NIST ThermoML archive (doi:10.1021/je100100n)",
  "experiment": "xn = mol fraction of the nth substance listed",
  "settings": "101 kPa, Liquid",
  "note": "Numbers after ± are expanded uncertainties.",
  "data": [
    {"smiles": "CCOC(=O)CC(=O)OCC", "note": "[diethyl 1,3-propanedioate] + CCO", "values": [
      {"measurement": "mass density", "setting": "288.15 K, x1 = 0.05", "result": "826.264 ± 0.45", "unit": "kg/m3"},
      {"measurement": "mass density", "setting": "288.15 K, x1 = 0.0999", "result": "853.923 ± 0.4", "unit": "kg/m3"},
      {"measurement": "mass density", "setting": "288.15 K, x1 = 0.1001", "result": "854.013 ± 0.4", "unit": "kg/m3"},
      {"measurement": "mass density", "setting": "288.15 K, x1 = 0.15", "result": "878.005 ± 0.36", "unit": "kg/m3"},
      {"measurement": "mass density", "setting": "288.15 K, x1 = 0.2001", "result": "899.1 ± 0.33", "unit": "kg/m3"},
      {"measurement": "mass density", "setting": "288.15 K, x1 = 0.3", "result": "934.365 ± 0.28", "unit": "kg/m3"},
      {"measurement": "mass density", "setting": "288.15 K, x1 = 0.4", "result": "962.806 ± 0.23", "unit": "kg/m3"},
      {"measurement": "mass density", "setting": "288.15 K, x1 = 0.4498", "result": "974.929 ± 0.22", "unit": "kg/m3"},
      {"measurement": "mass density", "setting": "288.15 K, x1 = 0.4999", "result": "986.037 ± 0.2", "unit": "kg/m3"},
      {"measurement": "mass density", "setting": "288.15 K, x1 = 0.5501", "result": "996.293 ± 0.18", "unit": "kg/m3"},
      {"measurement": "mass density", "setting": "288.15 K, x1 = 0.6001", "result": "1005.6 ± 0.19", "unit": "kg/m3"},
      {"measurement": "mass density", "setting": "288.15 K, x1 = 0.6453", "result": "1013.44 ± 0.2", "unit": "kg/m3"},
      {"measurement": "mass density", "setting": "288.15 K, x1 = 0.6997", "result": "1022.16 ± 0.21", "unit": "kg/m3"},
      {"measurement": "mass density", "setting": "288.15 K, x1 = 0.7497", "result": "1029.61 ± 0.23", "unit": "kg/m3"},
      {"measurement": "mass density", "setting": "288.15 K, x1 = 0.8496", "result": "1043.02 ± 0.25", "unit": "kg/m3"},
      {"measurement": "mass density", "setting": "288.15 K, x1 = 0.8995", "result": "1049.08 ± 0.26", "unit": "kg/m3"},
      {"measurement": "mass density", "setting": "288.15 K, x1 = 1", "result": "1060.33 ± 0.27", "unit": "kg/m3"},
      {"measurement": "mass density", "setting": "298.15 K, x1 = 0.05", "result": "817.293 ± 0.46", "unit": "kg/m3"},
      {"measurement": "mass density", "setting": "298.15 K, x1 = 0.0999", "result": "844.646 ± 0.41", "unit": "kg/m3"},
      {"measurement": "mass density", "setting": "298.15 K, x1 = 0.1001", "result": "844.731 ± 0.41", "unit": "kg/m3"},
      {"measurement": "mass density", "setting": "298.15 K, x1 = 0.15", "result": "868.468 ± 0.38", "unit": "kg/m3"},
      {"measurement": "mass density", "setting": "298.15 K, x1 = 0.2001", "result": "889.366 ± 0.34", "unit": "kg/m3"},
      {"measurement": "mass density", "setting": "298.15 K, x1 = 0.3", "result": "924.309 ± 0.29", "unit": "kg/m3"},
      {"measurement": "mass density", "setting": "298.15 K, x1 = 0.4", "result": "952.511 ± 0.25", "unit": "kg/m3"},
      {"measurement": "mass density", "setting": "298.15 K, x1 = 0.4498", "result": "964.533 ± 0.23", "unit": "kg/m3"},
      {"measurement": "mass density", "setting": "298.15 K, x1 = 0.4999", "result": "975.577 ± 0.21", "unit": "kg/m3"},
      {"measurement": "mass density", "setting": "298.15 K, x1 = 0.5501", "result": "985.767 ± 0.2", "unit": "kg/m3"},
      {"measurement": "mass density", "setting": "298.15 K, x1 = 0.6001", "result": "995.034 ± 0.18", "unit": "kg/m3"},
      {"measurement": "mass density", "setting": "298.15 K, x1 = 0.6453", "result": "1002.82 ± 0.18", "unit": "kg/m3"},
      {"measurement": "mass density", "setting": "298.15 K, x1 = 0.6997", "result": "1011.52 ± 0.2", "unit": "kg/m3"},
      {"measurement": "mass density", "setting": "298.15 K, x1 = 0.7497", "result": "1018.93 ± 0.21", "unit": "kg/m3"},
      {"measurement": "mass density", "setting": "298.15 K, x1 = 0.8496", "result": "1032.31 ± 0.23", "unit": "kg/m3"},
      {"measurement": "mass density", "setting": "298.15 K, x1 = 0.8995", "result": "1038.36 ± 0.24", "unit": "kg/m3"},
      {"measurement": "mass density", "setting": "298.15 K, x1 = 1", "result": "1049.6 ± 0.26", "unit": "kg/m3"},
      {"measurement": "mass density", "setting": "313.15 K, x1 = 0.05", "result": "803.619 ± 0.48", "unit": "kg/m3"},
      {"measurement": "mass density", "setting": "313.15 K, x1 = 0.0999", "result": "830.505 ± 0.43", "unit": "kg/m3"},
      {"measurement": "mass density", "setting": "313.15 K, x1 = 0.1001", "result": "830.589 ± 0.43", "unit": "kg/m3"},
      {"measurement": "mass density", "setting": "313.15 K, x1 = 0.15", "result": "853.941 ± 0.4", "unit": "kg/m3"},
      {"measurement": "mass density", "setting": "313.15 K, x1 = 0.2001", "result": "874.536 ± 0.36", "unit": "kg/m3"},
      {"measurement": "mass density", "setting": "313.15 K, x1 = 0.3", "result": "909.007 ± 0.31", "unit": "kg/m3"},
      {"measurement": "mass density", "setting": "313.15 K, x1 = 0.4", "result": "936.881 ± 0.27", "unit": "kg/m3"},
      {"measurement": "mass density", "setting": "313.15 K, x1 = 0.4498", "result": "948.801 ± 0.25", "unit": "kg/m3"},
      {"measurement": "mass density", "setting": "313.15 K, x1 = 0.4999", "result": "959.71 ± 0.24", "unit": "kg/m3"},
      {"measurement": "mass density", "setting": "313.15 K, x1 = 0.5501", "result": "969.837 ± 0.22", "unit": "kg/m3"},
      {"measurement": "mass density", "setting": "313.15 K, x1 = 0.6001", "result": "979.034 ± 0.21", "unit": "kg/m3"},
      {"measurement": "mass density", "setting": "313.15 K, x1 = 0.6453", "result": "986.788 ± 0.2", "unit": "kg/m3"},
      {"measurement": "mass density", "setting": "313.15 K, x1 = 0.6997", "result": "995.442 ± 0.18", "unit": "kg/m3"},
      {"measurement": "mass density", "setting": "313.15 K, x1 = 0.7497", "result": "1002.83 ± 0.18", "unit": "kg/m3"},
      {"measurement": "mass density", "setting": "313.15 K, x1 = 0.8496", "result": "1016.2 ± 0.2", "unit": "kg/m3"},
      {"measurement": "mass density", "setting": "313.15 K, x1 = 0.8995", "result": "1022.25 ± 0.21", "unit": "kg/m3"},
      {"measurement": "mass density", "setting": "313.15 K, x1 = 1", "result": "1033.5 ± 0.23", "unit": "kg/m3"},
      {"measurement": "mass density", "setting": "328.15 K, x1 = 0.05", "result": "789.558 ± 0.5", "unit": "kg/m3"},
      {"measurement": "mass density", "setting": "328.15 K, x1 = 0.0999", "result": "815.983 ± 0.46", "unit": "kg/m3"},
      {"measurement": "mass density", "setting": "328.15 K, x1 = 0.1001", "result": "816.063 ± 0.46", "unit": "kg/m3"},
      {"measurement": "mass density", "setting": "328.15 K, x1 = 0.15", "result": "839.005 ± 0.42", "unit": "kg/m3"},
      {"measurement": "mass density", "setting": "328.15 K, x1 = 0.2001", "result": "859.351 ± 0.39", "unit": "kg/m3"},
      {"measurement": "mass density", "setting": "328.15 K, x1 = 0.3", "result": "893.394 ± 0.34", "unit": "kg/m3"},
      {"measurement": "mass density", "setting": "328.15 K, x1 = 0.4", "result": "920.983 ± 0.29", "unit": "kg/m3"},
      {"measurement": "mass density", "setting": "328.15 K, x1 = 0.4498", "result": "932.802 ± 0.28", "unit": "kg/m3"},
      {"measurement": "mass density", "setting": "328.15 K, x1 = 0.4999", "result": "943.637 ± 0.26", "unit": "kg/m3"},
      {"measurement": "mass density", "setting": "328.15 K, x1 = 0.5501", "result": "953.695 ± 0.24", "unit": "kg/m3"},
      {"measurement": "mass density", "setting": "328.15 K, x1 = 0.6001", "result": "962.847 ± 0.23", "unit": "kg/m3"},
      {"measurement": "mass density", "setting": "328.15 K, x1 = 0.6453", "result": "970.577 ± 0.22", "unit": "kg/m3"},
      {"measurement": "mass density", "setting": "328.15 K, x1 = 0.6997", "result": "979.211 ± 0.21", "unit": "kg/m3"},
      {"measurement": "mass density", "setting": "328.15 K, x1 = 0.7497", "result": "986.588 ± 0.2", "unit": "kg/m3"},
      {"measurement": "mass density", "setting": "328.15 K, x1 = 0.8496", "result": "999.969 ± 0.18", "unit": "kg/m3"},
      {"measurement": "mass density", "setting": "328.15 K, x1 = 0.8995", "result": "1006.06 ± 0.19", "unit": "kg/m3"},
      {"measurement": "mass density", "setting": "328.15 K, x1 = 1", "result": "1017.34 ± 0.2", "unit": "kg/m3"}
    ]}
  ]
}
